Tested on: Hepatoma cells
Details: 75 ppm boron-10
Procedure: The drug carrier prepared in the above embodiments applied to the boron neutron capture therapy for cells was tested. The test method is described in detail below. Referring to FIG. 8, Tsing Hua Open-pool Reactor (THOR) 200 was used. An acrylic plate 204 was used as a carrier of 96-well plate 210. Hepatoma cells 206 were placed in the 96-well plate. Thermal neutrons 208 were used to irradiate the 96-well plate 210. An acrylic cube 202 was placed behind the carrier to slow down the thermal neutrons 208, so as to shorten the irradiation time.
Group I represents culture medium. Group J represents a boric acid solution containing 75 ppm of boron-10. Group K represents the drug carrier covering boric acid containing 75 ppm of boron-10. Group L represents the drug carrier without covering boric acid. The vertical axis is cell number percentage (%). The thermal neutron irradiation time was 27.67 minutes. After the thermal neutron irradiation, changes in cell numbers of each group were tested using the cell toxicity analysis kit (Wst-1 assay) after 24 hours.

## boric acid
  part of mortality rate caused by toxicity of boric acid / by drug carrier (not by irradiation): 40%
Irradiation time 27.67 minutes
  part of mortality rate caused by irradiation of thermal neutron: 15%
Irradiation time 27.67 minutes, Wst-1 after 24 hours
  mortality rate after irradiation of thermal neutron: 55%
